Reference: the supplement of paper PMC10307832

Columns and labels:
Test in all cases: relative viability (nuclei count vs DMSO), 5 days (fraction); higher = more cells survive
QS11 + Crizotinib = compound: C1CC2=C(C1)C=C(C=C2)OC3=NC(=C4C(=N3)N(C=N4)CC5=CC=C(C=C5)C6=CC=CC=C6)N[C@@H](CC7=CC=CC=C7)CO [QS11] + C[C@@H](Oc1cc(-c2cnn(C3CCNCC3)c2)cnc1N)c1c(Cl)ccc(F)c1Cl [Crizotinib] (partner 1 µM)
Summary of the method: (§1)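 After 5 days of treatment, lung cancer cells in 1536-well plates were fixed and stained in a single step (final 0.05% Triton X-100, 1% formaldehyde, 1 ug/ml Hoechst) and their nuclei counted on 4× images. Treatment had been applied by pin tool the day after seeding as one drug alone or as a fixed anchor-drug dose with five library-drug doses (not always all listed) in √10 steps. Relative viability is the nuclei count of treated wells divided by that of vehicle wells, and values are medians of duplicate plates.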

AZ628 + Lapatinib = compound: CC1=C(C=C(C=C1)NC(=O)C2=CC(=CC=C2)C(C)(C)C#N)NC3=CC4=C(C=C3)N=CN(C4=O)C [AZ628] + CS(=O)(=O)CCNCc1ccc(-c2ccc3ncnc(Nc4ccc(OCc5cccc(F)c5)c(Cl)c4)c3c2)o1 [Lapatinib] (partner 2 µM)
Summary of the method: as §1

QS11 + Luminespib = compound: C1CC2=C(C1)C=C(C=C2)OC3=NC(=C4C(=N3)N(C=N4)CC5=CC=C(C=C5)C6=CC=CC=C6)N[C@@H](CC7=CC=CC=C7)CO [QS11] + CCNC(=O)c1noc(-c2cc(C(C)C)c(O)cc2O)c1-c1ccc(CN2CCOCC2)cc1 [Luminespib] (partner 0.01 µM)
Summary of the method: as §1

QS11 + AZD7762 = compound: C1CC2=C(C1)C=C(C=C2)OC3=NC(=C4C(=N3)N(C=N4)CC5=CC=C(C=C5)C6=CC=CC=C6)N[C@@H](CC7=CC=CC=C7)CO [QS11] + NC(=O)Nc1cc(-c2cccc(F)c2)sc1C(=O)N[C@H]1CCCNC1 [AZD7762] (partner 0.2 µM)
Summary of the method: as §1

Cell Line | relative viability (QS11 + Crizotinib; first compound 0.08 µM) | relative viability (QS11 + Crizotinib; first compound 0.253 µM) | relative viability (QS11 + Crizotinib; first compound 0.8 µM) | relative viability (QS11 + Crizotinib; first compound 2.53 µM) | relative viability (QS11 + Crizotinib; first compound 8 µM) | relative viability (AZ628 + Lapatinib; first compound 0.08 µM) | relative viability (AZ628 + Lapatinib; first compound 0.253 µM) | relative viability (AZ628 + Lapatinib; first compound 0.8 µM) | relative viability (AZ628 + Lapatinib; first compound 2.53 µM) | relative viability (AZ628 + Lapatinib; first compound 8 µM) | relative viability (QS11 + Luminespib; first compound 0.08 µM) | relative viability (QS11 + Luminespib; first compound 0.253 µM) | relative viability (QS11 + Luminespib; first compound 0.8 µM) | relative viability (QS11 + Luminespib; first compound 2.53 µM) | relative viability (QS11 + Luminespib; first compound 8 µM) | relative viability (QS11 + AZD7762; first compound 0.08 µM) | relative viability (QS11 + AZD7762; first compound 0.253 µM) | relative viability (QS11 + AZD7762; first compound 0.8 µM) | relative viability (QS11 + AZD7762; first compound 2.53 µM) | relative viability (QS11 + AZD7762; first compound 8 µM)
A549 | 0.791 | 0.773 | 0.613 | 0.483 | 0.522 | 1.13 | 0.839 | 0.676 | 0.835 | 0.536 | – | – | – | – | – | – | – | – | – | –
COR-L23 | 0.672 | 0.642 | 0.481 | 0.447 | 0.481 | 1.11 | 1.05 | 1.04 | 0.968 | 0.683 | 0.718 | 0.683 | 0.673 | 0.552 | 0.576 | – | – | – | – | –
COR-L 105 | 1.04 | 0.735 | 0.616 | 0.618 | 0.702 | 0.413 | 0.391 | 0.366 | 0.32 | 0.4 | 0.838 | 0.7 | 0.649 | 0.776 | 0.664 | – | – | – | – | –
Calu-6 | 0.907 | 0.914 | 0.728 | 0.952 | 0.828 | 1.2 | 0.981 | 0.629 | 0.844 | 0.222 | – | – | – | – | – | – | – | – | – | –
EBC-1 | 0.19 | 0.203 | 0.206 | 0.224 | 0.238 | 0.219 | 0.205 | 0.251 | 0.22 | 0.199 | – | – | – | – | – | – | – | – | – | –
HCC-78 | 0.326 | 0.342 | 0.289 | 0.325 | 0.331 | 0.81 | 0.725 | 0.961 | 0.703 | 0.479 | – | – | – | – | – | 0.677 | 0.527 | 0.552 | 0.703 | 0.703
HCC-366 | 0.565 | 0.542 | – | 0.292 | 0.324 | 1.1 | 0.918 | 0.968 | 0.87 | 0.717 | – | – | – | – | – | 0.28 | 0.259 | – | 0.271 | 0.192
IA-LM | 0.697 | 0.94 | 0.675 | 0.693 | 0.712 | 0.881 | 0.831 | 0.315 | 0.373 | 0.2 | – | – | – | – | – | – | – | – | – | –
NCI-H520 | – | 0.907 | 0.831 | 0.587 | 0.932 | 0.901 | 0.857 | 0.743 | 0.778 | 0.766 | 0.25 | 0.369 | 0.228 | 0.231 | 0.209 | – | – | – | – | –
NCI-H661 | 0.887 | 1.08 | 0.753 | 0.872 | 0.985 | 0.401 | 0.502 | 0.435 | 0.498 | 0.464 | 0.988 | 0.96 | 0.806 | 1.08 | 0.839 | – | – | – | – | –
NCI-H1299 | 0.998 | 0.947 | 0.948 | 0.892 | 0.699 | 1.11 | 1.2 | 1.17 | 1.23 | 0.945 | – | – | – | – | – | – | – | – | – | –
